From patent US9050477B2, “Cosmetic compositions comprising oridonin and new cosmetic uses” (SEDERMA, priority 2009, dated 2015)

Experiments:
[1] = Oxygen-Radical Absorbance Capacity (ORAC) test; format: biochemical; conditions: n = 6, vs control
Source text: a. Reduction in Peroxyl Radicals: ORAC Test
The Oxygen-Radical Absorbance Capacity (ORAC) test is a method enabling evaluation of the antioxidant capability of molecules and extracts of plant origin. […] The free radical-induced […] of fluorescein decreases its fluorescence. The antioxidant molecules will reduce this degradation

[2] = tested on: reduced glutathione (GSH); assay: Stimulation of reduced glutathione (GSH) synthesis, ELISA; format: cell-based; conditions: human keratinocytes, 24 h
Method: c. Stimulation of Reduced Glutathione (GSH) Synthesis
Human keratinocytes at confluence are exposed 24 h to tested products. Intracellular GSH concentration was determined by ELISA.

Human melanocytes = assay: Melanogenesis of human melanocytes in monolayer (melanin content); format: cell-based; conditions: 5 days, n=4
Method: iii. Change in the Melanogenesis of Human Melanocytes in Monolayer
Human melanocytes were cultured and exposed with the test products for 5 days. After incubation the melanin content was measured in cell homogenates (n=4).

G3PDH = assay: Slimming: G3PDH activity in differentiating human preadipocytes; format: cell-based; conditions: for Act G3PDH: 10 days of differentiation, control 220.2 +/− 32.8; for Act G3PDH % Change: vs control
Method: Human preadipocytes are cultured and induced to differentiate in the presence of oridonin. After 10 days of differentiation, G3PDH activity was measured in cell homogenates as a marker of differentiation. (n=4).

chorioallantoic membrane = assay: Anti-redness effect: Het-CAM method; conditions: 5000 ppm aspirin (positive control); SDS irritant; irritant alone 10 +/− 1.63
Source text: b. Evaluation of the Anti-Redness Effect: Het-CAM Method The Het-CAM model is recommended as an alternative method for the evaluation of the irritant effect of cosmetics. The model uses eggs at a very early stage of development since the nervous system is not yet fully developed (JORF No. 300, Dec. 26, 1996). A moderately irritant product induces instantaneous changes in the capillary density of the chorioallantoic membrane. Previously invisible blood vessels become clearly visible under the effect of vasodilatation. This property was exploited to evaluate the effect of the combination of oridonin and darutoside. The combination oridonin+darutoside was applied to the surface of the chorioallantoic membrane and, after incubation, a surfactant, used as an SDS irritant agent, in an appropriate concentration, was applied to the surface of the membrane. A score was determined by an experienced operator and compared to that for the membranes exposed to the irritant alone (negative control) and that for the membranes exposed to aspirin, used as the positive control (JORF published method, modified).

## C=C1C(=O)[C@]23[C@H](O)[C@H]1CC[C@H]2[C@@]12CO[C@]3(O)[C@@H](O)[C@@H]1C(C)(C)CC[C@@H]2O [oridonin]
[1]; oridonin 1.5 ppm
  effect on the reduction of the destruction of fluorescein by free radicals: +14%; p < 0.01
[1]; oridonin 3 ppm
  effect on the reduction of the destruction of fluorescein by free radicals: +4%; dns
[1]; oridonin 4.5 ppm
  effect on the reduction of the destruction of fluorescein by free radicals: −4%; dns
[2]; oridonin 3 ppm
  GSH change as % of control: +41%; p < 0.01
[2]; oridonin 4.5 ppm
  GSH change as % of control: +79%; p < 0.01
Human melanocytes; oridonin alone, 2.25 ppm
  % Change/control (melanin content): −23%; p < 0.01
Human melanocytes; oridonin alone, 3 ppm
  % Change/control (melanin content): −34%; p < 0.01
Human melanocytes; oridonin alone, 5 ppm (so in the source)
  % Change/control (melanin content): −21%; p < 0.01
Human melanocytes; oridonin alone, 125 ppm (so in the source)
  % Change/control (melanin content): −16%; p < 0.01
G3PDH; oridonin 2.7 ppm
  Act G3PDH: 162.1 +/− 31.4 mU/10^6 cell
  Act G3PDH % Change: −26%; p < 0.05
G3PDH; oridonin 3.6 ppm
  Act G3PDH: 127.7 +/− 19.2 mU/10^6 cell
  Act G3PDH % Change: −42%; p < 0.01

## darutoside
[2]; darutoside 10 ppm
  GSH change as % of control: +3%; dns
[2]; darutoside 15 ppm
  GSH change as % of control: +2%; dns
Human melanocytes; darutoside alone, 3.75 ppm
  % Change/control (melanin content): +1%; dns
Human melanocytes; darutoside alone, 5 ppm
  % Change/control (melanin content): +2%; dns
Human melanocytes; darutoside alone, 7.5 ppm
  % Change/control (melanin content): −4%; dns
Human melanocytes; darutoside alone, 10 ppm
  % Change/control (melanin content): −7%; p < 0.05

## CC(=O)Oc1ccccc1C(=O)O [aspirin]
Chorioallantoic membrane
  Mean score (inflammation index): 2 +/− 2.06
